How the values were obtained:
[1] = target: T1, hVR1 receptors (Homo sapiens, UniProt Q8NER1); test: Human VR1 binding assay ([3H]RTX); details: membranes of HEK293 cells transfected with human VR1; for h Binding % I (1 uM): inhibition of [3H]RTX binding; for Ki: [3H]RTX binding
T1 construct: expressed in transfected cells; host or cells: HEK293
Procedure: Compounds of the present invention were tested for their ability to inhibit the binding of [^3H] RTX to hVR1 receptors in a [^3H] RTX binding assay as previously described (Zhang, Sui-Po. Improved ligand binding assays for vanilloid receptors. PCT Int. Appl. (2002), WO 0233411 A1 20020425 AN 2002:315209, and Grant, Elfrida R., Dubin, Adrienne E., Zhang, Sui-Po, Zivin, Robert A., Zhong, Zhong Simultaneous intracellular calcium and sodium flux imaging in human vanilloid receptor 1 (VR1)-transfected human embryonic kidney cells: a method to resolve ionic dependence of VR1-mediated cell death. J. Pharmacol. Exp. Ther., 2002, 300(1), 9-17.)
HEK293 cells were transfected with human VR1 vanilloid receptors and washed with Hank's balanced Salt Solution, dissociated with cell dissociation buffer (Sigma), and then centrifuged at 1000×g for 5 min. Cell pellets were homogenized in cold 20 mM HEPES buffer, pH 7.4, containing 5.8 mM NaCl, 320 mM sucrose, 2 mM MgCl2, 0.75 CaCl2 and 5 mM KCl and centrifuged at 1000×g for 15 min. The resultant supernate was then centrifuged at 40000×g for 15 min. The pelleted membranes were stored in a freezer at −80° C.
Approximately 120 μg protein/ml from membranes were incubated with indicated concentrations of [^3H]RTX in 0.5 ml of the HEPES buffer (pH 7.4) containing 0.25 mg/mL fatty acid-free bovine serum albumin at 37° C. for 60 min. The reaction mixture was then cooled to 4° C., added 0.1 mg α1-acid glycoprotein to each sample and incubated at 4° C. for 15 min. The samples were centrifuged at 18500×g for 15 min. The tip of the microcentrifuge tube containing the pellet was cut off. Bound radioactivity was quantified by scintillation counting. Non-specific binding was tested in the presence of 200 nM unlabeled RTX.
Data were calculated according to the equation: % inhibition=(total binding−binding)*100/(total binding−non specific binding). Ki values were calculated using a Prism program.

[2] = target: T2, Human Vanilloid Receptor 1 (Homo sapiens, UniProt Q8NER1); test: Human VR1 functional assay using FLIPR, Protocol 1; format: cell-based; details: for inhibition at 9 µM: HEK293, 9 uM, HEK 293 cells transfected with hVR1, read-out: h % I (9 uM); for IC50: decreased capsaicin (EC80)-induced calcium response, HEK 293 hVR1, read-out: h IC50
T2 construct: expressed in transfected cells; host or cells: HEK 293
T2 sequence (Q8NER1 whole entry): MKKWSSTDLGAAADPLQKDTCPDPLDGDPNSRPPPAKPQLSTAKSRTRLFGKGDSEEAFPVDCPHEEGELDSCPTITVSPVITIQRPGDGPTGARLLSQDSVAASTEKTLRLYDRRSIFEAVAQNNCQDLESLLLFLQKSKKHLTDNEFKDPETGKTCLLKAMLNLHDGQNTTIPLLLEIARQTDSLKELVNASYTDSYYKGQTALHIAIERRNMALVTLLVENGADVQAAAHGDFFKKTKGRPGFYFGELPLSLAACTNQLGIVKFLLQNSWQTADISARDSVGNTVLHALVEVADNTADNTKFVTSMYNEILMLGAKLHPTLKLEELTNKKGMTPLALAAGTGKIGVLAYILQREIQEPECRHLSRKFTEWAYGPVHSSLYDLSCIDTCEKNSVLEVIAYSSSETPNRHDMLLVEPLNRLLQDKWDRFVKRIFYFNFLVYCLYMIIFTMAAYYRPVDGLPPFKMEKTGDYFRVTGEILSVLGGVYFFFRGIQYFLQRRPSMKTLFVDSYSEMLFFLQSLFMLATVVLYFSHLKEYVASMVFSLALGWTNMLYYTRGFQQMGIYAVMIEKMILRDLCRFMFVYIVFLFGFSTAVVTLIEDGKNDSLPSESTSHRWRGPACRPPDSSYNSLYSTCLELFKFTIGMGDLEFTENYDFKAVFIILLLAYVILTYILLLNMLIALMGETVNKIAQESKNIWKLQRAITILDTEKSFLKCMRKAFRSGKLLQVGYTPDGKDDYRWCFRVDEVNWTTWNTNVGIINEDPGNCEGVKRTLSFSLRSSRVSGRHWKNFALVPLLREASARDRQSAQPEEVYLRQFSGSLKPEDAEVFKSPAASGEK
Procedure: The functional activity of the test compounds was determined by measuring changes in intracellular calcium concentration using FLIPR™ Calcium-3 Assay Kit and FLIPR™ technology.
HEK 293 cells transfected with Human Vanilloid Receptor 1 were maintained at 37° C. and 5% CO2 in: Dulbecco's Modification of Eagle's Medium (high glucose, L-glutamine, pyridoxine HCl, No sodium pyruvate), 10% FBS, 1× Penicillin-Streptomycin-Amphotericin B, 200 ug/mL zeocin. Approximately 24 hours prior to assay, 30,000 cells/well were plated onto a 384-well black clear bottom poly-D-lysine-coated assay plate with a well volume of 25 µL using Titertek Multidrop.
On the day of the assay, the medium was dumped and 50 μL 1× dye were loaded using Multidrop. Plates were incubated with dye at 37° C. for 30 minutes followed by 30 minutes incubation at room temperature. Then the plates were assayed by FLIPR™ with 2 additions: 12.5 μL test compound with 5 minutes data acquisition followed by 12.5 μL capsaicin at the EC80 concentration.
The EC50 values of test compounds were calculated based on a test compound-induced calcium response at the 5-minute time point. The IC50 values of compounds were calculated based on a decreased capsaicin-induced calcium response in the presence of test compound.

[3] = inhibition of capsaicin (EC80)-induced calcium response

T1 sequence (Q8NER1 whole entry): as above

Row | Structure (SMILES) | h Binding % I (1 uM) [1] [%] | Ki [1] [nM] | inhibition at 9 µM [2, 3] [%] | IC50 [2] [nM] | h % I (9 uM) ([2]; 9 uM, inhibition of capsaicin (EC80)-induced calcium response, HEK 293 cells transfected with hVR1) [%]
1 | Cc1ccc(N2CCC(C(=O)Nc3cnc4ccccc4c3)CC2)cc1C [Example 6, 1-(3,4-Dimethyl-phenyl)-piperidine-4-carboxylic acid quinolin-3-ylamide] | 66.5 | 215 | 92.2 | 350 | –
2 | O=C(Nc1cccc2[nH]ccc12)C1CCN(c2cccc(C(F)(F)F)c2)CC1 [Example 8, 1-(3-Trifluoromethyl-phenyl)-piperidine-4-carboxylic acid (1H-indol-4-yl)-amide] | 87.0 | 134 | 101 | 230 | –
3 | CC(=O)N1CCc2cccc(NC(=O)C3CCN(c4cccc(C(F)(F)F)c4)CC3)c21 [Example 9, 1-(3-Trifluoromethyl-phenyl)-piperidine-4-carboxylic acid (1-acetyl-2,3-dihydro-1H-indol-7-yl)-amide] | 4.8 | – | 48.5 | 5610 | –
4 | O=C(Nc1ccc2ncsc2c1)C1CCN(c2cccc(C(F)(F)F)c2)CC1 [Example 13, 1-(3-Trifluoromethyl-phenyl)-piperidine-4-carboxylic acid benzothiazol-6-ylamide] | 47.7 | – | 88 | 480 | –
5 | CC(=O)N1CCc2ccc(NC(=O)C3CCN(c4cccc(C(F)(F)F)c4)CC3)cc21 [Example 16, 1-(3-Trifluoromethyl-phenyl)-piperidine-4-carboxylic acid (1-acetyl-2,3-dihydro-1H-indol-6-yl)-amide] | 15.0 | – | 83 | 800 | –
6 | O=C(Nc1cccc2[nH]ccc12)C1CCN(c2cccc(C(F)(F)F)c2)CC1 [Example 21, 1-(3-Trifluoromethyl-phenyl)-piperidine-4-carboxylic acid (1H-indol-4-yl)-amide] | 86.9 | 134 | – | 160 | 102.0
7 | CC(=O)c1cc2c(cc1NC(=O)C1CCN(c3cccc(C(F)(F)F)c3)CC1)OCO2 [Example 33, 1-(3-Trifluoromethyl-phenyl)-piperidine-4-carboxylic acid (6-acetyl-benzo[1,3]dioxol-5-yl)-amide] | 12.8 | – | 12.6 | – | –
8 | O=C1COc2ccc(NC(=O)C3CCN(c4cccc(C(F)(F)F)c4)CC3)cc2N1 [Example 34, 1-(3-Trifluoromethyl-phenyl)-piperidine-4-carboxylic acid (3-oxo-3,4-dihydro-2H-benzo[1,4]oxazin-6-yl)-amide] | – | 65 | 94.5 | 210 | –
9 | O=C(Nc1cnc2ccccc2c1)C1CCN(c2ccccc2Br)CC1 [Example 53, 1-(2-Bromo-phenyl)-piperidine-4-carboxylic acid quinolin-3-ylamide] | 47.3 | – | 104 | 160 | –
10 | Cc1cccc(N2CCC(C(=O)Nc3ccc4c(c3)NC(=O)CO4)CC2)c1 [Example 140, 1-m-Tolyl-piperidine-4-carboxylic acid (3-oxo-3,4-dihydro-2H-benzo[1,4]oxazin-6-yl)-amide] | – | 225 | 84 | 490 | –
11 | Cc1ccccc1N1CCC(C(=O)Nc2ccc3c(c2)NC(=O)CO3)CC1 [Example 141, 1-o-Tolyl-piperidine-4-carboxylic acid (3-oxo-3,4-dihydro-2H-benzo[1,4]oxazin-6-yl)-amide] | – | 61 | 100 | 150 | –
12 | CCc1ccccc1N1CCC(C(=O)Nc2ccc3c(c2)NC(=O)CO3)CC1 [Example 142, 1-(2-Ethyl-phenyl)-piperidine-4-carboxylic acid (3-oxo-3,4-dihydro-2H-benzo[1,4]oxazin-6-yl)-amide] | – | 125 | 96.3 | 150 | –
13 | CC(C)c1ccccc1N1CCC(C(=O)Nc2ccc3c(c2)NC(=O)CO3)CC1 [Example 143, 1-(2-Isopropyl-phenyl)-piperidine-4-carboxylic acid (3-oxo-3,4-dihydro-2H-benzo[1,4]oxazin-6-yl)-amide] | – | 78 | 101 | 180 | –
14 | Cc1ccc(N2CCC(C(=O)Nc3ccc4c(c3)NC(=O)CO4)CC2)cc1C [Example 144, 1-(3,4-Dimethyl-phenyl)-piperidine-4-carboxylic acid (3-oxo-3,4-dihydro-2H-benzo[1,4]oxazin-6-yl)-amide] | – | 314 | 77 | 380 | –
15 | Cc1cccc(N2CCC(C(=O)Nc3ccc4c(c3)NC(=O)CO4)CC2)c1C [Example 145, 1-(2,3-Dimethyl-phenyl)-piperidine-4-carboxylic acid (3-oxo-3,4-dihydro-2H-benzo[1,4]oxazin-6-yl)-amide] | – | 27 | 99.5 | 60 | –
16 | CC(C)(C)c1ccc(N2CCC(C(=O)Nc3ccc4c(c3)NC(=O)CO4)CC2)cc1 [Example 146, 1-(4-tert-Butyl-phenyl)-piperidine-4-carboxylic acid (3-oxo-3,4-dihydro-2H-benzo[1,4]oxazin-6-yl)-amide] | – | 132 | 112 | 90 | –
17 | O=C1COc2ccc(NC(=O)C3CCN(c4cccc(F)c4)CC3)cc2N1 [Example 147, 1-(3-Fluoro-phenyl)-piperidine-4-carboxylic acid (3-oxo-3,4-dihydro-2H-benzo[1,4]oxazin-6-yl)-amide] | – | 84 | 90 | 520 | –
18 | O=C1COc2ccc(NC(=O)C3CCN(c4cccc(Cl)c4)CC3)cc2N1 [Example 148, 1-(3-Chloro-phenyl)-piperidine-4-carboxylic acid (3-oxo-3,4-dihydro-2H-benzo[1,4]oxazin-6-yl)-amide] | – | 34 | 88.7 | 190 | –
19 | O=C1COc2ccc(NC(=O)C3CCN(c4ccccc4F)CC3)cc2N1 [Example 151, 1-(2-Fluoro-phenyl)-piperidine-4-carboxylic acid (3-oxo-3,4-dihydro-2H-benzo[1,4]oxazin-6-yl)-amide] | – | 1470 | 62.3 | 670 | –
20 | O=C1COc2ccc(NC(=O)C3CCN(c4ccccc4Cl)CC3)cc2N1 [Example 152, 1-(2-Chloro-phenyl)-piperidine-4-carboxylic acid (3-oxo-3,4-dihydro-2H-benzo[1,4]oxazin-6-yl)-amide] | – | 93 | 90.7 | 220 | –
21 | O=C1COc2ccc(NC(=O)C3CCN(c4ccccc4Br)CC3)cc2N1 [Example 153, 1-(2-Bromo-phenyl)-piperidine-4-carboxylic acid (3-oxo-3,4-dihydro-2H-benzo[1,4]oxazin-6-yl)-amide] | – | 71 | 91.7 | 160 | –
22 | O=C1COc2ncc(NC(=O)C3CCN(c4cccc(C(F)(F)F)c4)CC3)cc2N1 [Example 167, 1-(3-Trifluoromethyl-phenyl)-piperidine-4-carboxylic acid (2-oxo-2,3-dihydro-1H-pyrido[2,3-b][1,4]oxazin-7-yl)-amide] | – | – | 45.7 | – | –
23 | O=C(Nc1ccc2c(c1)N(CCO)C(=O)CO2)C1CCN(c2cccc(C(F)(F)F)c2)CC1 [Example 168, 1-(3-Trifluoromethyl-phenyl)-piperidine-4-carboxylic acid [4-(2-hydroxy-ethyl)-3-oxo-3,4-dihydro-2H-benzo[1,4]oxazin-6-yl]-amide] | – | – | 59.6 | – | –
